Results from article PMC10759735, “The diverse functions of Mu-class Glutathione S-transferase HrGSTm1 during the development of Hyalomma rufipes with a focus on the detoxification metabolism of cyhalothrin” (Parasites & Vectors, 2024).

System: T1, rHrGSTm1
T1 construct: gene HrGSTm1; full-length CDS (672-bp ORF); 223 aa in abstract, 233; recombinant 44 kDa, no tag removal described
Test: GSH conjugation, absorbance at […] nm, Michaelis-Menten fit
Assay type: biochemical, Hyalomma rufipes
Conditions: 5 mM GSH; CDNB varied 0.125-2 mM (printed unit μM lies far below this range, possibly meant mM); abstract calls glutathione the substrate

O=[N+]([O-])c1ccc(Cl)c([N+](=O)[O-])c1 [CDNB, 1-Chlom-2,4-Dinitrobenzene]
Km: 2.21 ± 0.76 µM
